# According to PubChem BioAssay (NCI):
#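 Protocol summary: plate cells (96-well), add compound at 5 concentrations, incubate 48 h, interpolate endpoints linearly. GI50 is the concentration that inhibits growth by half. TGI is the concentration that stops growth completely.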
# What was measured:
# Experiment in all cases: growth of human tumour cells (NCI), 48 h
# EKVX NSCLC = test system: EKVX NSCLC
# CCRF-CEM leukemia = test system: CCRF-CEM leukemia
# OVCAR-8 ovarian = test system: OVCAR-8 ovarian
# OVCAR-4 ovarian = test system: OVCAR-4 ovarian
# IGROV1 ovarian = test system: IGROV1 ovarian
# MALME-3M melanoma = test system: MALME-3M melanoma
# MDA-MB-231 breast = test system: MDA-MB-231 breast
# UACC-257 melanoma = test system: UACC-257 melanoma
# SF-295 CNS = test system: SF-295 CNS
# HCT-116 colon = test system: HCT-116 colon
# RPMI-8226 leukemia = test system: RPMI-8226 leukemia
# RXF 393 renal = test system: RXF 393 renal
# OVCAR-3 ovarian = test system: OVCAR-3 ovarian
# BT-549 breast = test system: BT-549 breast
# SF-268 CNS = test system: SF-268 CNS
# U251 CNS = test system: U251 CNS
# LOX IMVI melanoma = test system: LOX IMVI melanoma
# NCI-H23 lung = test system: NCI-H23 lung
# HS 578T breast = test system: HS 578T breast
# SK-OV-3 ovarian = test system: SK-OV-3 ovarian
# NCI-H522 lung = test system: NCI-H522 lung
# A549 NSCLC = test system: A549 NSCLC
# A498 renal = test system: A498 renal
# MOLT-4 leukemia = test system: MOLT-4 leukemia
# OVCAR-5 ovarian = test system: OVCAR-5 ovarian
# SR leukemia = test system: SR leukemia
# SK-MEL-28 melanoma = test system: SK-MEL-28 melanoma
# SW-620 colon = test system: SW-620 colon
# SN12C renal = test system: SN12C renal
# SNB-19 CNS = test system: SNB-19 CNS
# NCI/ADR-RES ovarian = test system: NCI/ADR-RES ovarian
# MDA-MB-435 = test system: MDA-MB-435
# TK-10 renal = test system: TK-10 renal
# SK-MEL-2 melanoma = test system: SK-MEL-2 melanoma
# K-562 leukemia = test system: K-562 leukemia
# CAKI-1 renal = test system: CAKI-1 renal
# HOP-62 NSCLC = test system: HOP-62 NSCLC
# HOP-92 NSCLC = test system: HOP-92 NSCLC
# HCC-2998 colon = test system: HCC-2998 colon
# COLO 205 colon = test system: COLO 205 colon
# HCT-15 colon = test system: HCT-15 colon
# KM12 colon = test system: KM12 colon
# SF-539 CNS = test system: SF-539 CNS
# SNB-75 CNS = test system: SNB-75 CNS
# NCI-H226 lung = test system: NCI-H226 lung
# M14 melanoma = test system: M14 melanoma
# T-47D breast = test system: T-47D breast
# HT29 colon = test system: HT29 colon
# MCF7 breast = test system: MCF7 breast
# ACHN renal = test system: ACHN renal
# HL-60(TB) leukemia = test system: HL-60(TB) leukemia
# UACC-62 melanoma = test system: UACC-62 melanoma
# UO-31 renal = test system: UO-31 renal
# 786-0 renal = test system: 786-0 renal
# PC-3 prostate = test system: PC-3 prostate
# NCI-H460 lung = test system: NCI-H460 lung
# DU-145 prostate = test system: DU-145 prostate
structure (smiles),measurement,setting,value
COC(=O)c1nc(-c2ccccc2)oc1S(=O)(=O)Cc1ccccc1,GI50,EKVX NSCLC,14.4 µM
same,TGI,EKVX NSCLC,30.1 µM
same,GI50,CCRF-CEM leukemia,2.91 µM
same,TGI,CCRF-CEM leukemia,8.41 µM
same,GI50,OVCAR-8 ovarian,12.1 µM
same,TGI,OVCAR-8 ovarian,28.2 µM
same,GI50,OVCAR-4 ovarian,1.82 µM
same,TGI,OVCAR-4 ovarian,3.4 µM
same,GI50,IGROV1 ovarian,2.75 µM
same,TGI,IGROV1 ovarian,7.21 µM
same,GI50,MALME-3M melanoma,1.73 µM
same,TGI,MALME-3M melanoma,3.44 µM
same,GI50,MDA-MB-231 breast,2.18 µM
same,TGI,MDA-MB-231 breast,5.24 µM
same,GI50,UACC-257 melanoma,13.7 µM
same,TGI,UACC-257 melanoma,27.2 µM
same,GI50,SF-295 CNS,16.5 µM
same,TGI,SF-295 CNS,36.3 µM
same,GI50,HCT-116 colon,2.58 µM
same,TGI,HCT-116 colon,6.23 µM
same,GI50,RPMI-8226 leukemia,3.05 µM
same,TGI,RPMI-8226 leukemia,9.51 µM
same,GI50,RXF 393 renal,1.87 µM
same,TGI,RXF 393 renal,3.5 µM
same,GI50,OVCAR-3 ovarian,1.94 µM
same,TGI,OVCAR-3 ovarian,3.52 µM
same,GI50,BT-549 breast,6.5 µM
same,TGI,BT-549 breast,19.1 µM
same,GI50,SF-268 CNS,16.1 µM
same,TGI,SF-268 CNS,32.8 µM
same,GI50,U251 CNS,15.5 µM
same,TGI,U251 CNS,29 µM
same,GI50,LOX IMVI melanoma,2.88 µM
same,TGI,LOX IMVI melanoma,8.7 µM
same,GI50,NCI-H23 lung,16.2 µM
same,TGI,NCI-H23 lung,34.4 µM
same,GI50,HS 578T breast,19.2 µM
same,TGI,HS 578T breast,60.1 µM
same,GI50,SK-OV-3 ovarian,70.2 µM
same,TGI,SK-OV-3 ovarian,> 100 µM
same,GI50,NCI-H522 lung,1.52 µM
same,TGI,NCI-H522 lung,3.29 µM
same,GI50,A549 NSCLC,17.5 µM
same,TGI,A549 NSCLC,33.6 µM
same,GI50,A498 renal,15.9 µM
same,TGI,A498 renal,29.7 µM
same,GI50,MOLT-4 leukemia,2.11 µM
same,TGI,MOLT-4 leukemia,5.57 µM
same,GI50,OVCAR-5 ovarian,3.12 µM
same,TGI,OVCAR-5 ovarian,11.3 µM
same,GI50,SR leukemia,3.03 µM
same,TGI,SR leukemia,16.5 µM
same,GI50,SK-MEL-28 melanoma,7.15 µM
same,TGI,SK-MEL-28 melanoma,20.4 µM
same,GI50,SW-620 colon,2.05 µM
same,TGI,SW-620 colon,4.14 µM
same,GI50,SN12C renal,4.27 µM
same,TGI,SN12C renal,15.5 µM
same,GI50,SNB-19 CNS,16.3 µM
same,TGI,SNB-19 CNS,31.3 µM
same,GI50,NCI/ADR-RES ovarian,16.9 µM
same,TGI,NCI/ADR-RES ovarian,36.3 µM
same,GI50,MDA-MB-435,11.1 µM
same,TGI,MDA-MB-435,23.6 µM
same,GI50,TK-10 renal,1.74 µM
same,TGI,TK-10 renal,3.19 µM
same,GI50,SK-MEL-2 melanoma,12.7 µM
same,TGI,SK-MEL-2 melanoma,26.9 µM
same,GI50,K-562 leukemia,2.07 µM
same,TGI,K-562 leukemia,5.29 µM
same,GI50,CAKI-1 renal,1.84 µM
same,TGI,CAKI-1 renal,3.42 µM
same,GI50,HOP-62 NSCLC,26.8 µM
same,TGI,HOP-62 NSCLC,> 100 µM
same,GI50,HOP-92 NSCLC,1.61 µM
same,TGI,HOP-92 NSCLC,3.12 µM
same,GI50,HCC-2998 colon,19 µM
same,TGI,HCC-2998 colon,36.3 µM
same,GI50,COLO 205 colon,1.84 µM
same,TGI,COLO 205 colon,3.66 µM
same,GI50,HCT-15 colon,1.79 µM
same,TGI,HCT-15 colon,3.58 µM
same,GI50,KM12 colon,20.8 µM
same,TGI,KM12 colon,39.2 µM
same,GI50,SF-539 CNS,11.2 µM
same,TGI,SF-539 CNS,23.7 µM
same,GI50,SNB-75 CNS,14.1 µM
same,TGI,SNB-75 CNS,27.1 µM
same,GI50,NCI-H226 lung,13.9 µM
same,TGI,NCI-H226 lung,31.4 µM
same,GI50,M14 melanoma,3.87 µM
same,TGI,M14 melanoma,16.3 µM
same,GI50,T-47D breast,2.17 µM
same,TGI,T-47D breast,5.95 µM
same,GI50,HT29 colon,2.44 µM
same,TGI,HT29 colon,5.79 µM
same,GI50,MCF7 breast,2.72 µM
same,TGI,MCF7 breast,11.1 µM
same,GI50,ACHN renal,1.77 µM
same,TGI,ACHN renal,3.15 µM
same,GI50,HL-60(TB) leukemia,2.3 µM
same,TGI,HL-60(TB) leukemia,6.22 µM
same,GI50,UACC-62 melanoma,6.52 µM
same,TGI,UACC-62 melanoma,20 µM
same,GI50,UO-31 renal,1.48 µM
same,TGI,UO-31 renal,2.84 µM
same,GI50,786-0 renal,3.25 µM
same,TGI,786-0 renal,11 µM
same,GI50,PC-3 prostate,15 µM
same,TGI,PC-3 prostate,29.4 µM
same,GI50,NCI-H460 lung,19.8 µM
same,TGI,NCI-H460 lung,40 µM
same,GI50,DU-145 prostate,3.46 µM
same,TGI,DU-145 prostate,10.9 µM
